ChEMBL document CHEMBL1201862, “PubChem BioAssay data set” (2004)
Calls of active or inactive are those of the source.

Assays:
[1] = target: Luciferin 4-monooxygenase (Photinus pyralis, UniProt P08659); experiment: Counter Screen for Luciferase-based Assay Positives. [Related pubchem assays: 620, 618, 411 ]
HT-1080 = experiment: cytotoxicity in HT1080 fibrosarcoma cells, cell-based, fluorescence readout (AID 620); type: functional; details: Homo sapiens
[2] = target: Dual specificity tyrosine-phosphorylation-regulated kinase 1A (Rattus norvegicus, UniProt Q63470); type: biochemical, Homo sapiens
[3] = HepG2 cell cytotoxicity, dose response, cytotoxicity control, ATP luminescence, cherry-pick, activator set 2 (AID 1053143); type: functional, cell-based
Escherichia coli = experiment: microbe, parasite or virus in culture
Coagulation factor XII = target: T1, Coagulation factor XII (Homo sapiens, UniProt P00748); type: functional;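 note: activated factor XIIa alpha cleaving a fluorogenic AMC peptide substrate; inhibitor potency from loss of enzyme activity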
T1 sequence (P00748 whole entry): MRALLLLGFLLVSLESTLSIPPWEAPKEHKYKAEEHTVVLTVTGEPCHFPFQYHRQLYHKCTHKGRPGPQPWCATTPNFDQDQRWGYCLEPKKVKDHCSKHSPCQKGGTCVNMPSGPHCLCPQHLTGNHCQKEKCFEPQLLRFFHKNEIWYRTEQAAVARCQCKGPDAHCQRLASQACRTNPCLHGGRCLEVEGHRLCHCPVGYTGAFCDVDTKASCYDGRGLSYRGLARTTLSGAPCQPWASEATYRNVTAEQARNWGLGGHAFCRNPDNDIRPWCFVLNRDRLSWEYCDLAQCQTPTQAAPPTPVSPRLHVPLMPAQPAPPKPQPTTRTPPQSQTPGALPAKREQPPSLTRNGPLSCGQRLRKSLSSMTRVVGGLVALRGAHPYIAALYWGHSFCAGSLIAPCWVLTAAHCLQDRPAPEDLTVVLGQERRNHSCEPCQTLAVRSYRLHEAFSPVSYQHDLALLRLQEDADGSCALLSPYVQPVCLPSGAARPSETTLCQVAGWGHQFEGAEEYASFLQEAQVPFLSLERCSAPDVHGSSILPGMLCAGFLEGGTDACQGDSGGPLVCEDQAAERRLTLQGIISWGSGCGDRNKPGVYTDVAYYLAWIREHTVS

[4] = target: 1-phosphatidylinositol 4,5-bisphosphate phosphodiesterase gamma-1 (Homo sapiens, UniProt P19174); experiment: Counterscreen for inhibitors of phospholipase C isozymes (PLC-B3): Fluorescence-based biochemical high throughput dose response assay to identify inhibitors of phospholipase C isozymes (PLC-gamma1).
Chain of 1-phosphatidylinositol 4,5-bisphosphate phosphodiesterase gamma-1 (P19174 whole entry): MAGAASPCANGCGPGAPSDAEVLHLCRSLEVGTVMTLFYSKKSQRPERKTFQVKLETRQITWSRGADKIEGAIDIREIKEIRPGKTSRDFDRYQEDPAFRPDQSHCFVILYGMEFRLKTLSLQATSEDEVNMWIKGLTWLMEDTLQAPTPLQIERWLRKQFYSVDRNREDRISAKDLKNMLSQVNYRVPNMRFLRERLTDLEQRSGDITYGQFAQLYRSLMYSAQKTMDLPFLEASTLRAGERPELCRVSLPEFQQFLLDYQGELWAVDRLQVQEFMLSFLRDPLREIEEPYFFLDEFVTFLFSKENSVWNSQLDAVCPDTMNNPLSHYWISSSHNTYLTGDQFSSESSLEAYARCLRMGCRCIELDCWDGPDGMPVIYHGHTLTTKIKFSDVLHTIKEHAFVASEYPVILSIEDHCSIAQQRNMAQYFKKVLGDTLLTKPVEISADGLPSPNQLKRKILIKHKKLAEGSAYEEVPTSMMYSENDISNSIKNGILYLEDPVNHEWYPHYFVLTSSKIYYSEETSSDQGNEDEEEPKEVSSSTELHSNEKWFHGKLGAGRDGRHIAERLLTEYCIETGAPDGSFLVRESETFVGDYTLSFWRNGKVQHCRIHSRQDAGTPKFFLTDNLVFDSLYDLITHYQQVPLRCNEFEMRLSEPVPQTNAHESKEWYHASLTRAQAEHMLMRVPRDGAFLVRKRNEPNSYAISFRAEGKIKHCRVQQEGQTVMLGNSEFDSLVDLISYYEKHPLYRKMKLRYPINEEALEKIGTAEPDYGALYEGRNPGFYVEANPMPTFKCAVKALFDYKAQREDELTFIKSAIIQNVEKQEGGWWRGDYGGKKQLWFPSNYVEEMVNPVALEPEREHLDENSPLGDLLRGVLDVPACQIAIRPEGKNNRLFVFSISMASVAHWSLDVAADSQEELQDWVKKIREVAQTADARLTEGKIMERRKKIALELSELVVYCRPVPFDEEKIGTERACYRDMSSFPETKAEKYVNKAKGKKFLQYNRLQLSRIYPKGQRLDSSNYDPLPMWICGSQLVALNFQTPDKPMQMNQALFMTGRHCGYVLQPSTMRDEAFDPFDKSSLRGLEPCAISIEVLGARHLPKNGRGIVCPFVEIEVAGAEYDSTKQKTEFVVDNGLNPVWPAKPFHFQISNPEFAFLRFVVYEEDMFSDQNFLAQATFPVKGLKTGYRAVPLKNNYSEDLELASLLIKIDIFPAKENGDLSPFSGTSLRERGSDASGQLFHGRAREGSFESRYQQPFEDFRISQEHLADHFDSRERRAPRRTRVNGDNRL

[5] = target: 1-phosphatidylinositol 4,5-bisphosphate phosphodiesterase beta-3 (Homo sapiens, UniProt Q01970); experiment: Fluorescence-based biochemical high throughput dose response assay to identify inhibitors of phospholipase C isozymes (PLC-B3).
Chain of 1-phosphatidylinositol 4,5-bisphosphate phosphodiesterase beta-3 (Q01970 whole entry): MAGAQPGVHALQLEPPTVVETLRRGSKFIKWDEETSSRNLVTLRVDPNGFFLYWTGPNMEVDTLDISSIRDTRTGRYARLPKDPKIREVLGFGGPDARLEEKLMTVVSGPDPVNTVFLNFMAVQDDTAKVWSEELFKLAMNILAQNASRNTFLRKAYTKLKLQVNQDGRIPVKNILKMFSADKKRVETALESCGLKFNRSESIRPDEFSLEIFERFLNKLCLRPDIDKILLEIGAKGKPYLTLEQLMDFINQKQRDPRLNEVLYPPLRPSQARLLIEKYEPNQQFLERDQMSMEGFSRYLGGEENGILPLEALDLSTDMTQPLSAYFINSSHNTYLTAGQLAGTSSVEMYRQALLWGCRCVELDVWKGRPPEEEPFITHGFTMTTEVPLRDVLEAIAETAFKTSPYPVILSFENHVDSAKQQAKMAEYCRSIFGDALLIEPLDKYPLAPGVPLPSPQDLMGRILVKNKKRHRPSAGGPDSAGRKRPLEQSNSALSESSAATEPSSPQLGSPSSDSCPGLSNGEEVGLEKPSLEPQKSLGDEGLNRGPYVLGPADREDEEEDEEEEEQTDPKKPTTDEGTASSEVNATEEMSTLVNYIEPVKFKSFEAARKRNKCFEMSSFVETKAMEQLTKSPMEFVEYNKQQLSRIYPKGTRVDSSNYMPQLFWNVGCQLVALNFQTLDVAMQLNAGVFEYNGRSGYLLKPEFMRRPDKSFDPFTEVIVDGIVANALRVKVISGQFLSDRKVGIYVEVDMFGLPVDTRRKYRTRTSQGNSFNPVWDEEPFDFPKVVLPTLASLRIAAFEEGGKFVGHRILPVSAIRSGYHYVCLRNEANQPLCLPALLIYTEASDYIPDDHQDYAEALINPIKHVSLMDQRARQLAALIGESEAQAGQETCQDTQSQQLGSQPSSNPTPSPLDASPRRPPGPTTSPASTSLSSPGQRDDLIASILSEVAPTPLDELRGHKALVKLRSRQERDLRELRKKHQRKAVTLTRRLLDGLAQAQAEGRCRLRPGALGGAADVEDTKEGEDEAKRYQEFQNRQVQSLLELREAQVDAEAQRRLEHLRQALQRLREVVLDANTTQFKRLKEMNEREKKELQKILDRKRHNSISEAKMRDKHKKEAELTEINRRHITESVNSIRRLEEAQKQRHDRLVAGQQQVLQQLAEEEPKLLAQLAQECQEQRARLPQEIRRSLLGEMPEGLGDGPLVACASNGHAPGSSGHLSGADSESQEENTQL

[6] = system: Streptococcus sp. 'group A'; experiment: growth inhibition of control SK(-) GAS strain, dose response, counter-screen for streptokinase expression inhibitor project, luminescence, kanamycin, BacTiterGlo, confirmation (AID 1900); type: functional, organism-based
Streptococcus = experiment: Group A Streptococcus viability loss, dose response, counter-screen for streptokinase expression inhibitor project, luminescence, BacTiterGlo (AID 1915); type: functional, organism-based;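 note: potency for reduction of bacterial viability or growth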
[7] = target: T2, Short transient receptor potential channel 4 (Mus musculus, UniProt Q9QUQ5); experiment: mouse TRPC4 channel activators, dose response, cell-based, HEK293 TRPC4/mu-opioid, Fluo-4 calcium (AID 434937); type: functional
T2 sequence (Q9QUQ5 whole entry): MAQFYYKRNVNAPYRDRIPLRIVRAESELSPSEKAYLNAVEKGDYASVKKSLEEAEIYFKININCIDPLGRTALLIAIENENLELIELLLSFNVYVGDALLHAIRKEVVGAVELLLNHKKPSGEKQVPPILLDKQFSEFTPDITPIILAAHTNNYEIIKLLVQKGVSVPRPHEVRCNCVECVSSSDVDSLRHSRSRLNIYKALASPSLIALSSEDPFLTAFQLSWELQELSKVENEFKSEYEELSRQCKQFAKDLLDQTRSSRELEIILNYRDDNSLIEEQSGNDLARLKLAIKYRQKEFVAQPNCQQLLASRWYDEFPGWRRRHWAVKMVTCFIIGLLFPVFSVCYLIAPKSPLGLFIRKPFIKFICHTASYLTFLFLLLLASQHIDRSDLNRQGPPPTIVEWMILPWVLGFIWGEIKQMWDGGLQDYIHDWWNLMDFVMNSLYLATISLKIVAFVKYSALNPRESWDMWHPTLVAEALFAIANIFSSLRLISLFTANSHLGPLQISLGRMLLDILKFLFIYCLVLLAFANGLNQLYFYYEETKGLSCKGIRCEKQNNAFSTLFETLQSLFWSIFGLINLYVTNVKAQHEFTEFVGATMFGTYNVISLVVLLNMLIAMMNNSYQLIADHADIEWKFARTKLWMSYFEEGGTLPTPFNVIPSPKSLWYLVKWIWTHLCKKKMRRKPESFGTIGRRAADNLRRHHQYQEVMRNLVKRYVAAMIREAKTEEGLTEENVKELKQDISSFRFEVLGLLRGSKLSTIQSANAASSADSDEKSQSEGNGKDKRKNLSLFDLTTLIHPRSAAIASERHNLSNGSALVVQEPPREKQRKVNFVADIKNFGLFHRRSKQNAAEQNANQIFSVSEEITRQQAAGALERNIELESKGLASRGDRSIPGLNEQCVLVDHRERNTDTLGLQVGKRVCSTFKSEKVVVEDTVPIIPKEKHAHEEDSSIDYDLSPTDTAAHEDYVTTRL

[8] = human group III sPLA2 inhibitors, dose response, biochemical, QFRET, IC50 (AID 743457);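 note: green fluorescence rise as the enzyme cleaves BODIPY PC-A2 in liposomes; potency for inhibition of the enzyme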
[9] = HEK293T cell cytotoxicity, dose response, cytotoxicity control, CellTiter-Glo luminescence, dry powder, set 6 (AID 651949); type: functional, cell-based; details: HEK293
[10] = Luminescence Cell-Based Dose Response to Identify Activators of 5'UTR Stem-Loop Driven Prion Protein mRNA Translation in H4-C Neuroglioblastoma Cells. [Related pubchem assays: 1829 (Project Summary), 1814 (Primary HTS)]; type: functional
[11] = Luminescence Cell-Based Dose Response HTS to Identify Activators of Luciferase Translation or Activity in H4 […] Cells. [Related pubchem assays: 1829 (Project Summary), 1814 (Primary HTS)]; type: functional
H4 = experiment: Luminescence Cell-Based Dose Response HTS to Identify Activators of 5'UTR Stem-Loop Driven Prion Protein mRNA Translation in H4 Neuroglioblastoma Cells. [Related pubchem assays: 1829 (Project Summary), 1814 (Primary HTS)]; type: functional; details: Homo sapiens
[12] = Luminescence Cell-Based Dose Response to Identify Activators of Luciferase Translation or Activity in H4-C Neuroglioblastoma Cells. [Related pubchem assays: 1829 (Project Summary), 1814 (Primary HTS)]; type: functional
[13] = Luminescence Cell-Based Dose Confirmation to Identify Activators of 5'UTR Stem-Loop Driven Alpha-Synuclein mRNA Translation in H4 Neuroglioblastoma Cells. [Related pubchem assays: 1829 (Project Summary), 1814 (Primary HTS)]; type: functional
INS1 = experiment: beta cell apoptosis inhibitors, cytokine rescue, dose response, luminescence, retest (AID 449756); type: functional, cell-based; details: Rattus norvegicus;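 note: cell death triggered by IL-1 beta plus TNF-alpha plus IFN-gamma mixture; protective hits raise ATP signal compared with cytokine alone wells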
Caspase-6 [14] = target: T3, Caspase-6 (Homo sapiens, UniProt P55212); experiment: human caspase-6 inhibitors, dose response, biochemical, VEID-R110 fluorescence, cherry-pick (AID 720632)
T3 sequence (P55212 whole entry): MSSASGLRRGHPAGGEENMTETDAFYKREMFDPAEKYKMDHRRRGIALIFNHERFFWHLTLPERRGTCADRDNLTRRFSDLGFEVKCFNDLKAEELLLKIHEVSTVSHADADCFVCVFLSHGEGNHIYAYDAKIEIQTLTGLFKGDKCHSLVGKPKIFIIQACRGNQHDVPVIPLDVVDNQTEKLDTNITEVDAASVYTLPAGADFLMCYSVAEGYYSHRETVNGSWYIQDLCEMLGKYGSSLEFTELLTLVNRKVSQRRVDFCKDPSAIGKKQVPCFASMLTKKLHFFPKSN

Caspase-6 [15] = target: T3, Caspase-6; experiment: human caspase-6 inhibitors, dose response, biochemical, VEID-R110 fluorescence, dry powder retest (AID 743332)
Caspase-7 = Caspase-7 (Homo sapiens, UniProt P55210); experiment: human caspase-7 inhibitors, dose response, selectivity assay for caspase-6 inhibitor project, biochemical, DEVD-R110 fluorescence, cherry-pick (AID 743295)
Chain of Caspase-7 (P55210 24-198 limits assumed): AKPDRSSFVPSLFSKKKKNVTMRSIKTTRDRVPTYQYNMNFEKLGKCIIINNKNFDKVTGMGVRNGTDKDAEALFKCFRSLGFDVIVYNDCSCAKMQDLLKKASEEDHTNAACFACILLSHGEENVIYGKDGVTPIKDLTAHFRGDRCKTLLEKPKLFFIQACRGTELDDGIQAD
Chain of Caspase-7 (P55210 207-303 limits assumed): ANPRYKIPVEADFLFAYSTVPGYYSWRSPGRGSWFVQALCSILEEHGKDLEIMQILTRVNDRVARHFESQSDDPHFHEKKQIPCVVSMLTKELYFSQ

Chain of Luciferin 4-monooxygenase (P08659 whole entry): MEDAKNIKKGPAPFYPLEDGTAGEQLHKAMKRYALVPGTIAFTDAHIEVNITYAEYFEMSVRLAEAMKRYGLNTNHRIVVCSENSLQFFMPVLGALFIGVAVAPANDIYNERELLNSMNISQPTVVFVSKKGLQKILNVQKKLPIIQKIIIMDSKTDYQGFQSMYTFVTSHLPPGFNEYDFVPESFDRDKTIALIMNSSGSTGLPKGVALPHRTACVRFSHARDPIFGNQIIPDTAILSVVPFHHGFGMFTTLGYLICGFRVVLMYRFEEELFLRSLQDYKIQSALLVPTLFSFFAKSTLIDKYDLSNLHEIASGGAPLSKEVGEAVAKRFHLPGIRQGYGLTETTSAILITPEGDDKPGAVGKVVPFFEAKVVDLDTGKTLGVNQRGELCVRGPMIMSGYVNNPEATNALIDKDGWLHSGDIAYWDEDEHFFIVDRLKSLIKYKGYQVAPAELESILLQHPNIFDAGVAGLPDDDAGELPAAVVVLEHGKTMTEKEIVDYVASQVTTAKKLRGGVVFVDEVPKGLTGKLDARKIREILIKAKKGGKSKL

With `Nc1ccc(C(=O)Nc2nc3ccccc3s2)cc1` the EC50 [1] was 0.32 µM (active), the EC50 (HT-1080) was > 50 µM (not active) and the AC50 [2] was 4.15 µM (active). The AC50 [3] was 26 µM (active) and the AC50 (Escherichia coli) was 47.5 µM (active).

In the case of `CS(=O)(=O)c1nc(-c2ccc(Br)cc2)n[nH]1`, the IC50 (Coagulation factor XII) was > 50 µM (inactive), the IC50 [4] was 50.8 µM (inactive) and the IC50 [5] was > 122 µM (inactive).

In the case of `Cc1onc(-c2ccccc2)c1C(=O)NNC(=S)NC(=O)c1ccc2c(c1)OCO2`, the EC50 [6] was 0.978 µM (active), the EC50 (Streptococcus) was 4.64 µM (active) and the EC50 [7] was 4.22 µM (active). The IC50 [8] was 56.6 µM (inactive).

With `CN(Cc1ccccc1)c1nnc(-c2ccccc2)o1` the AC50 [9] was > 52 µM (inactive).

In the case of `[O-][n+]1onc2c1CCc1c-2nn(-c2ccccc2Cl)[n+]1[O-]`, the EC50 [10] was > 12 µM (not active), the EC50 [11] was < 0.1 µM (inconclusive) and the EC50 (H4) was > 120 µM (not active). The EC50 [12] was 1.41 µM (active), the EC50 [13] was 0.766 µM (active) and the AC50 (INS1) was 6.94 µM (active). The AC50 (Caspase-6 [14]) was 0.651 µM (active), the AC50 (Caspase-6 [15]) was 4.66 µM (active) and the AC50 (Caspase-7) was > 70 µM (inactive).
